The source of these data is PubChem BioAssay AID328 (DTP/NCI, 2004).

Where “and” joins values, the source holds several entries; their conditions need not be identical. Equal values may be shown once. Inconclusive results and toxic doses are left out.

The subject of the assay is BDF1 mice, P388 leukemia ip, median survival T/C. Nature of the assay: NCI In Vivo Anticancer Drug Screen. Data for tumor model P388 Leukemia (intraperitoneal) in B6D2F1 (BDF1) mice. The conditions noted are these: endpoint: median survival time, higher = longer survival. As to the method:
The antitumor activity of compounds was measured in mice bearing transplantable tumors. Survival or tumor size were measured and the results are expressed as the measurement made in the treated group (T) divided by the measurement made in the vehicle treated control group (C). The tumor model used in this assay is P388 Leukemia (intraperitoneal) in B6D2F1 (BDF1) mice

The mark [1] stands for this setting: dose: 100.0 mg/kg/injection, schedule: Q01DX001 (ip), vehicle: saline.
Setting [2] is: dose: 200.0 mg/kg/injection, schedule: Q01DX001 (ip), vehicle: saline.
[3] abbreviates: dose: 400.0 mg/kg/injection, schedule: Q01DX001 (ip), vehicle: saline.
Setting [4] is: dose: 6.25 mg/kg/injection, schedule: Q01DX009 (ip), vehicle: saline.
Where [5] appears, read: dose: 12.5 mg/kg/injection, schedule: Q01DX009 (ip), vehicle: saline.
[6] abbreviates: dose: 25.0 mg/kg/injection, schedule: Q01DX009 (ip), vehicle: saline.
Where [7] appears, read: dose: 100.0 mg/kg/injection, schedule: Q04DX003 (ip), vehicle: saline.
The mark [8] stands for this setting: dose: 50.0 mg/kg/injection, schedule: Q01DX001 (ip), vehicle: saline with Tween-80.
Setting [9] is: dose: 100.0 mg/kg/injection, schedule: Q01DX009 (ip), vehicle: saline with Tween-80.
[10] abbreviates: dose: 100.0 mg/kg/injection, schedule: Q04DX003 (ip), vehicle: saline with Tween-80.
[11] abbreviates: dose: 200.0 mg/kg/injection, schedule: Q01DX009 (ip), vehicle: saline with Tween-80.
Where [12] appears, read: dose: 200.0 mg/kg/injection, schedule: Q04DX003 (ip), vehicle: saline with Tween-80.
Where [13] appears, read: dose: 400.0 mg/kg/injection, schedule: Q04DX003 (ip), vehicle: saline with Tween-80.
Setting [14] is: dose: 50.0 mg/kg/injection, schedule: Q01DX009 (ip), vehicle: saline.
[15] abbreviates: dose: 100.0 mg/kg/injection, schedule: Q01DX009 (ip), vehicle: saline.
Where [16] appears, read: dose: 200.0 mg/kg/injection, schedule: Q01DX009 (ip), vehicle: saline.
The mark [17] stands for this setting: dose: 200.0 mg/kg/injection, schedule: Q04DX003 (ip), vehicle: saline.

As to `O=C1COCC(=O)C1`, the T/C runs as follows: under setting [1], 96 % of control; under setting [2], 107 % of control; under setting [3], 100 % of control.
As for `Cc1ccc(NCCN(C)C)c2c(=O)c3ccccc3sc12`, the T/C was 96 % of control under setting [4]; 105 % of control (dose: 12.0 mg/kg/injection, schedule: Q04DX003 (ip), vehicle: saline); 103 % of control under setting [5]; 120 % of control (dose: 19.0 mg/kg/injection, schedule: Q04DX003 (ip), vehicle: saline); 107 % of control under setting [6]; 155 % of control (dose: 100.0 mg/kg/injection, schedule: Q04DX003 (ip), vehicle: alcohol). For the same compound, the T/C was 168 % of control and 170 % of control under setting [7]; 205 % of control (dose: 150.0 mg/kg/injection, schedule: Q04DX003 (ip), vehicle: saline); 100 % of control (dose: 200.0 mg/kg/injection, schedule: Q04DX003 (ip), vehicle: alcohol).
Regarding `CC1C[N+](C)(C)N=C1[O-]` (configuration not stated), the T/C runs as follows: under setting [1], 109 % of control; under setting [2], 90 % of control; under setting [3], 109 % of control.
Turning to `O=c1cc(-c2ccccc2)nc2ccccn12`, the T/C by setting is: (dose: 12.5 mg/kg/injection, schedule: Q01DX001 (ip), vehicle: saline with Tween-80) 109 % of control; (dose: 25.0 mg/kg/injection, schedule: Q01DX001 (ip), vehicle: saline with Tween-80) 104 % of control; under setting [8], 123 % of control.
Regarding `CCCCCCCCNc1ccccc1`, the T/C is, setting by setting: (dose: 100.0 mg/kg/injection, schedule: Q01DX001 (ip), vehicle: saline sonified) 87 % of control; (dose: 400.0 mg/kg/injection, schedule: Q01DX001 (ip), vehicle: saline sonified) 91 % of control.
Take `O=C1CCC(=O)N1CCC(=O)N(C(=O)NC1CCCCC1)C1CCCCC1`: the T/C reads like this: (dose: 12.5 mg/kg/injection, schedule: Q01DX009 (ip), vehicle: saline with Tween-80) 100 % of control; (dose: 25.0 mg/kg/injection, schedule: Q01DX009 (ip), vehicle: saline with Tween-80) 101 % of control; (dose: 50.0 mg/kg/injection, schedule: Q01DX009 (ip), vehicle: saline with Tween-80) 104 % of control and 111 % of control; under setting [9], 101 % of control; under setting [10], 118 % of control; under setting [11], 100 % of control and 123 % of control. The T/C under setting [12] was 118 % of control; the T/C (dose: 400.0 mg/kg/injection, schedule: Q01DX009 (ip), vehicle: saline with Tween-80) was 111 % of control; the T/C under setting [13] was 113 % of control.
With `Cc1ccc(NC(=O)c2ccccc2Cl)c(C)c1`, the T/C under setting [10] is 100 % of control, the T/C under setting [12] was 100 % of control and the T/C under setting [13] was 109 % of control.
As for `C/C(=N/N(C)C)c1ccc(Br)cc1`, the T/C reads like this: under setting [5], 100 % of control; under setting [6], 100 % of control; under setting [14], 112 % of control; (dose: 110.0 mg/kg/injection, schedule: Q04DX003 (ip), vehicle: saline) 109 % of control; (dose: 170.0 mg/kg/injection, schedule: Q04DX003 (ip), vehicle: saline) 95 % of control; (dose: 255.0 mg/kg/injection, schedule: Q04DX003 (ip), vehicle: saline) 95 % of control.
As for `CCOC(=O)C1CSC2(CCCCC2)N1` (configuration not stated), the T/C reads like this: under setting [14], 92 % of control; under setting [15], 94 % of control; under setting [16], 109 % of control.
Regarding `CCOc1ccc(Br)cc1/C=C/C(C)=O`, the T/C by setting is: under setting [15], 109 % of control; under setting [7], 112 % of control; under setting [16], 95 % of control; under setting [17], 95 % of control; (dose: 400.0 mg/kg/injection, schedule: Q01DX009 (ip), vehicle: saline) 104 % of control; (dose: 400.0 mg/kg/injection, schedule: Q04DX003 (ip), vehicle: saline) 100 % of control.
For the compound `CCCCCCCCCCCCCCCCCC(=O)Oc1ccc(OCc2ccccc2)cc1`, the T/C is 100 % of control (dose: 100.0 mg/kg/injection, schedule: Q04DX003 (ip), vehicle: Klucel (hydroxypropylcellulose) (HPC)); 100 % of control (dose: 200.0 mg/kg/injection, schedule: Q04DX003 (ip), vehicle: Klucel (hydroxypropylcellulose) (HPC)); 90 % of control (dose: 400.0 mg/kg/injection, schedule: Q04DX003 (ip), vehicle: Klucel (hydroxypropylcellulose) (HPC)).
`CC1(C)CC(=O)N/C1=C\C1NC(=O)CC1(C)C` (configuration not stated): the T/C is 104 % of control under setting [9] and 109 % of control under setting [11].
Turning to `CC(C)c1ccc(NC(=O)Nc2cccc3ccccc23)cc1`, the T/C reads like this: under setting [8], 95 % of control; (dose: 100.0 mg/kg/injection, schedule: Q01DX001 (ip), vehicle: saline with Tween-80) 109 % of control; (dose: 200.0 mg/kg/injection, schedule: Q01DX001 (ip), vehicle: saline with Tween-80) 100 % of control.
With `CCN(CC)CCCCCCNc1cc(OC)c(F)c2c(C)ccnc12`, the T/C (dose: 3.13 mg/kg/injection, schedule: Q01DX009 (ip), vehicle: saline) is 109 % of control; the T/C under setting [4] is 107 % of control; the T/C under setting [5] is 116 % of control.
As for `CC(=O)Oc1c(Br)c(-c2cc([N+](=O)[O-])c(C)c([N+](=O)[O-])c2C)c(OC(C)=O)c(Br)c1-c1cc([N+](=O)[O-])c(C)c([N+](=O)[O-])c1C`, the T/C reads like this: (dose: 50.0 mg/kg/injection, schedule: Q01DX001 (ip), vehicle: Klucel (hydroxypropylcellulose) (HPC)) 112 % of control; (dose: 100.0 mg/kg/injection, schedule: Q01DX001 (ip), vehicle: Klucel (hydroxypropylcellulose) (HPC)) 115 % of control; (dose: 200.0 mg/kg/injection, schedule: Q01DX001 (ip), vehicle: Klucel (hydroxypropylcellulose) (HPC)) 115 % of control; (dose: 400.0 mg/kg/injection, schedule: Q01DX001 (ip), vehicle: Klucel (hydroxypropylcellulose) (HPC)) 106 % of control.
Turning to `CN(C)C(CCc1ccccc1)C(=O)O` (configuration not stated), the T/C under setting [7] was 100 % of control and the T/C under setting [17] is 104 % of control.
As to `OCCCC1CCCCN1` (configuration not stated), the T/C was 115 % of control (dose: 25.0 mg/kg/injection, schedule: Q04DX003 (ip), vehicle: saline); 100 % of control (dose: 50.0 mg/kg/injection, schedule: Q04DX003 (ip), vehicle: saline); 105 % of control under setting [7].
In the case of `NN(C(=O)c1ccccc1)c1ccccc1`, the T/C (dose: 12.5 mg/kg/injection, schedule: Q04DX003 (ip), vehicle: Klucel (hydroxypropylcellulose) (HPC)) is 100 % of control; the T/C (dose: 25.0 mg/kg/injection, schedule: Q01DX009 (ip), vehicle: Klucel (hydroxypropylcellulose) (HPC)) was 110 % of control; the T/C (dose: 25.0 mg/kg/injection, schedule: Q04DX003 (ip), vehicle: Klucel (hydroxypropylcellulose) (HPC)) is 100 % of control; the T/C (dose: 50.0 mg/kg/injection, schedule: Q01DX009 (ip), vehicle: Klucel (hydroxypropylcellulose) (HPC)) was 100 % of control; the T/C (dose: 50.0 mg/kg/injection, schedule: Q04DX003 (ip), vehicle: Klucel (hydroxypropylcellulose) (HPC)) was 104 % of control; the T/C (dose: 75.0 mg/kg/injection, schedule: Q04DX003 (ip), vehicle: Klucel (hydroxypropylcellulose) (HPC)) is 104 % of control. In addition, the T/C was 104 % of control (dose: 115.0 mg/kg/injection, schedule: Q04DX003 (ip), vehicle: Klucel (hydroxypropylcellulose) (HPC)); 109 % of control (dose: 170.0 mg/kg/injection, schedule: Q04DX003 (ip), vehicle: Klucel (hydroxypropylcellulose) (HPC)); 105 % of control (dose: 255.0 mg/kg/injection, schedule: Q04DX003 (ip), vehicle: Klucel (hydroxypropylcellulose) (HPC)); 110 % of control (dose: 385.0 mg/kg/injection, schedule: Q04DX003 (ip), vehicle: Klucel (hydroxypropylcellulose) (HPC)).
